Test results reported in US10906889B2, “Polycyclic inhibitors of cyclin-dependent kinase 7 (CDK7)” (Dana-Farber Cancer Institute, Inc., priority 2013, dated 2021).
Where two headings read alike, the source gives them in different places.

What was measured:
Jurkat cells = assay: Cell proliferation (CellTiter-Glo, 72 hour), Jurkat; assay type: cell-based; settings: Homo sapiens, blood cancer cell line
CDK7 = biological target: T1, CDK7 (Homo sapiens, UniProt P50613); assay: Adapta kinase assay (Life Technologies), CDK7; assay type: biochemical
T1 construct: purchased Life Technologies (assay service)

[1] = Table 1C, co-factors cyclin H and MNAT1, read-out: CDK7 IC50

T1 sequence (P50613 whole entry): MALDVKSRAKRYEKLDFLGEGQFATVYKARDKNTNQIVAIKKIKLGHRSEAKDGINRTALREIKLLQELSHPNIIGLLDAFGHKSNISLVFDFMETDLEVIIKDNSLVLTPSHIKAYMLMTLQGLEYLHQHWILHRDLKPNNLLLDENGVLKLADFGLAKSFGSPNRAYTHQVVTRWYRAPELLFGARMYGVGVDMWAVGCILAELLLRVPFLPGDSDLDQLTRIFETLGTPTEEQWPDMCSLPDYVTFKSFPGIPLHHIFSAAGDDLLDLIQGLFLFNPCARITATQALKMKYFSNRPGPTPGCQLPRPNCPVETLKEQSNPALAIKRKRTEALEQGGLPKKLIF
T1 sequence (P51946 whole entry partner): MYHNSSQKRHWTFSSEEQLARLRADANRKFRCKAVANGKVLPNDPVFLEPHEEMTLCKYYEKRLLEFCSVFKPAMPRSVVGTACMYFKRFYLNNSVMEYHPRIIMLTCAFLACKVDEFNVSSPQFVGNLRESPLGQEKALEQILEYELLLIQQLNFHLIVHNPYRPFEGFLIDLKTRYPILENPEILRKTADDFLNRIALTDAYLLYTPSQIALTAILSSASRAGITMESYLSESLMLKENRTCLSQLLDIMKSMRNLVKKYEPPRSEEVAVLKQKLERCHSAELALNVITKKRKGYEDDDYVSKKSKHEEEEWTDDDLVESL
T1 sequence (P51948 whole entry partner): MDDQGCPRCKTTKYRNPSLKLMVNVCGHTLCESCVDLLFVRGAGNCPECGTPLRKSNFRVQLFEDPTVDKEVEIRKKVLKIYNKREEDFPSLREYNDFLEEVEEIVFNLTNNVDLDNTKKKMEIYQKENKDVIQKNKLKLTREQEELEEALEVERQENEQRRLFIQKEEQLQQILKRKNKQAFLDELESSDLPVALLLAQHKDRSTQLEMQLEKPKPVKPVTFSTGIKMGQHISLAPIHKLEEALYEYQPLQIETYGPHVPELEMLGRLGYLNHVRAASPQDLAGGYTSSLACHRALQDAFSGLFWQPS

Row | SMILES | IC50 (Jurkat cells) [nM] | IC50 (CDK7; [1]) [nM] | IC50 (CDK7; Table 2, co-factors cyclin H and MNAT1, read-out: CDK7 (calculated IC50)) [nM]
1 | CN(C)C/C=C/C(=O)Nc1ccc(C(=O)NC2CC(Nc3ncc(Cl)c(-c4c[nH]c5ccccc45)n3)CC(F)(F)C2)cc1 (racemic) [Compound 122, (+/−)-N-(5-(5-chloro-4-(1H-indol-3-yl)pyrimidin-2-ylamino)-3,3-difluorocyclohexyl)-4-((E)-4-(dimethylamino)but-2-enamido)benzamide] | < 500 | < 100 | –
2 | CN(C)C/C=C/C(=O)Nc1ccc(C(=O)NC23CC4CC(C2)CC(Nc2ncc(Cl)c(-c5c[nH]c6ccccc56)n2)(C4)C3)cc1 [Compound 108, (E)-N-(3-(5-chloro-4-(1H-indol-3-yl)pyrimidin-2-ylamino)tricyclo[3.3.1.1^3,7]decanyl)-4-(4-(dimethylamino)but-2-enamido)benzamide] | 500 to 5000 | 100 to 1000 | –
3 | O=C(/C=C/CN1CCOCC1)Nc1ccc(C(=O)N[C@H]2CCC[C@@H](Nc3ncc(Cl)c(-c4c[nH]c5ccccc45)n3)C2)cc1 [Compound 110, N-((1S,3R)-3-(5-chloro-4-(1H-indol-3-yl)pyrimidin-2-ylamino)cyclohexyl)-4-((E)-4-morpholinobut-2-enamido)benzamide] | < 500 | < 100 | –
4 | CN1CCN(C/C=C/C(=O)Nc2ccc(C(=O)N[C@H]3CCC[C@@H](Nc4ncc(Cl)c(-c5c[nH]c6ccccc56)n4)C3)cc2)CC1 [Compound 111, N-((1S,3R)-3-(5-chloro-4-(1H-indol-3-yl)pyrimidin-2-ylamino)cyclohexyl)-4-((E)-4-(4-methylpiperazin-1-yl)but-2-enamido)benzamide] | < 500 | < 100 | –
5 | C=CC(=O)Nc1ccc(C(=O)N[C@H]2CCC[C@@H](Nc3ncc(Cl)c(-c4c[nH]c5ccccc45)n3)C2)cc1 [Compound 112, 4-acrylamido-N-((1S,3R)-3-(5-chloro-4-(1H-indol-3-yl)pyrimidin-2-ylamino)cyclohexyl)benzamide] | < 500 | < 100 | –
6 | C=C(C)C(=O)Nc1ccc(C(=O)N[C@H]2CCC[C@@H](Nc3ncc(Cl)c(-c4c[nH]c5ccccc45)n3)C2)cc1 [Compound 113, N-((1S,3R)-3-(5-chloro-4-(1H-indol-3-yl)pyrimidin-2-ylamino)cyclohexyl)-4-methacrylamidobenzamide] | 500 to 5000 | 100 to 1000 | –
7 | CN(C)C/C=C/C(=O)Nc1ccc(NC(=O)[C@H]2CCC[C@@H](Nc3ncc(Cl)c(-c4c[nH]c5ccccc45)n3)C2)cc1 [Compound 114, (1S,3R,E)-3-(5-chloro-4-(1H-indol-3-yl)pyrimidin-2-ylamino)-N-(4-(4-(dimethylamino)but-2-enamido)phenyl)cyclohexanecarboxamide] | < 500 | < 100 | –
8 | CN(C)C/C=C/C(=O)Nc1ccc(C(=O)N[C@H]2CCC[C@@H](Nc3ncc(Cl)c(-c4cccnc4)n3)C2)cc1 [Compound 116, N-((1S,3R)-3-(5-chloro-4-(pyridin-3-yl)pyrimidin-2-ylamino)cyclohexyl)-4-((E)-4-(dimethylamino)but-2-enamido)benzamide] | < 500 | 100 to 1000 | –
9 | CC(C)=CC(=O)Nc1ccc(C(=O)N[C@H]2CCC[C@@H](Nc3ncc(Cl)c(-c4c[nH]c5ccccc45)n3)C2)cc1 [Compound 118, N-((1S,3R)-3-(5-chloro-4-(1H-indol-3-yl)pyrimidin-2-ylamino)cyclohexyl)-4-(3-methylbut-2-enamido)benzamide] | 500 to 5000 | 100 to 1000 | –
10 | CN(C)C/C=C/C(=O)Nc1ccc(C(=O)NC23CCCC(Nc4ncc(Cl)c(-c5c[nH]c6ccccc56)n4)(C2)C3)cc1 [Compound 121, (E)-N-(5-(5-chloro-4-(1H-indol-3-yl)pyrimidin-2-ylamino)bicyclo[3.1.1]heptan-1-yl)-4-(4-(dimethylamino)but-2-enamido)benzamide] | < 500 | < 100 | –
11 | CN(C)C/C=C/C(=O)Nc1ccc(S(=O)(=O)N[C@H]2CCC[C@@H](Nc3ncc(Cl)c(-c4c[nH]c5ccccc45)n3)C2)cc1 [Compound 123, (E)-N-(4-(N-((1S,3R)-3-(5-chloro-4-(1H-indol-3-yl)pyrimidin-2-ylamino)cyclohexyl)sulfamoyl)phenyl)-4-(dimethylamino)but-2-enamide] | < 500 | 100 to 1000 | –
12 | CN(C)C/C=C/C(=O)Nc1ccc(C(=O)N[C@H]2CCC[C@@H](Nc3ncc(Cl)c(-c4c[nH]c5ccccc45)n3)C2)cc1F [Compound 126, N-((1S,3R)-3-(5-chloro-4-(1H-indol-3-yl)pyrimidin-2-ylamino)cyclohexyl)-4-((E)-4-(dimethylamino)but-2-enamido)-3-fluorobenzamide] | < 500 | < 100 | –
13 | CN(C)C/C=C/C(=O)Nc1ccc(CN(C(=O)OC(C)(C)C)[C@H]2CCC[C@@H](Nc3ncc(Cl)c(-c4c[nH]c5ccccc45)n3)C2)cc1 [Compound 127, tert-butyl (1S,3R)-3-(5-chloro-4-(1H-indol-3-yl)pyrimidin-2-ylamino) cyclohexyl(4-((E)-4-(dimethylamino)but-2-enamido)benzyl)carbamate] | 500 to 5000 | 100 to 1000 | –
14 | C=CC(=O)Nc1ccc([C@@H](N[C@H]2CCC[C@@H](Nc3ncc(Cl)c(-c4c[nH]c5ccccc45)n3)C2)C(F)(F)F)cc1 [Compound 136, N-(4-((R)-1-((1S,3R)-3-(5-chloro-4-(1H-indol-3-yl)pyrimidin-2-ylamino)cyclohexylamino)-2,2,2-trifluoroethyl)phenyl)acrylamide] | – | > 1000 | –
15 | C=CC(=O)Nc1ccc(C(=O)N[C@H]2CCC[C@@H](Nc3ncc(Cl)c(-c4n[nH]c5ccccc45)n3)C2)cc1 [Compound 151, 4-acrylamido-N-((1S,3R)-3-((5-chloro-4-(1H-indazol-3-yl)pyrimidin-2-yl)amino)cyclohexyl)benzamide] | – | < 100 | –
16 | C=CC(=O)Nc1ccc(C(=O)N[C@H]2CCC[C@@H](Nc3ncc(Cl)c(-c4c(C)[nH]c5ccccc45)n3)C2)cc1 [Compound 153, 4-acrylamido-N-((1S,3R)-3-((5-chloro-4-(2-methyl-1H-indol-3-yl)pyrimidin-2-yl)amino)cyclohexyl)benzamide] | – | < 100 | –
17 | C=CC(=O)Nc1cccc(CO[C@H]2CC[C@H](Nc3ncc(Cl)c(-c4c[nH]c5ccccc45)n3)CC2)c1 [Compound 155, N-(3-((((1R,4R)-4-((5-chloro-4-(1H-indol-3-yl)pyrimidin-2-yl)amino)cyclohexyl)oxy)methyl)phenyl)acrylamide] | – | > 1000 | –

The remaining lines, values ahead:

Row | IC50 (Jurkat cells) [nM] | IC50 (CDK7; [1]) [nM] | IC50 (CDK7; Table 2, co-factors cyclin H and MNAT1, read-out: CDK7 (calculated IC50)) [nM] | SMILES
18 | < 500 | < 100 | – | CN(C)C/C=C/C(=O)Nc1ccc(C(=O)NC2CC(O)CC(Nc3ncc(Cl)c(-c4c[nH]c5ccccc45)n3)C2)cc1 (racemic) [Compound 109, (+/−)-N-(-3-(5-chloro-4-(1H-indol-3-yl)pyrimidin-2-ylamino)-5-hydroxycyclohexyl)-4-((E)-4-(dimethylamino)but-2-enamido)benzamide]
19 | < 500 | < 100 | – | CN(C)C/C=C/C(=O)Nc1ccc(C(=O)NC2CC(F)CC(Nc3ncc(Cl)c(-c4c[nH]c5ccccc45)n3)C2)cc1 (racemic) [Compound 119, (+/−)-N-(3-(5-chloro-4-(1H-indol-3-yl)pyrimidin-2-ylamino)-5-fluorocyclohexyl)-4-((E)-4-(dimethylamino)but-2-enamido)benzamide]
20 | – | < 100 | < 100 | CN(C)C/C=C/C(=O)Nc1ccc(C(=O)NC2CCC(Nc3ncc(Cl)c(-c4c[nH]c5ccccc45)n3)CC2)cc1 (stereo not shown) [Compound 105]
21 | – | < 100 | – | CN(C)C/C=C/C(=O)Nc1ccc(C(=O)N[C@H]2CC[C@H](Nc3ncc(Cl)c(-c4c[nH]c5ccccc45)n3)CC2)cc1 [Compound 106]
22 | < 500 | < 100 | – | CN(C)C/C=C/C(=O)Nc1ccc(C(=O)N[C@H]2CCC[C@@H](Nc3ncc(C4CC4)c(-c4c[nH]c5ccccc45)n3)C2)cc1 [Compound 115, N-((1S,3R)-3-(5-cyclopropyl-4-(1H-indol-3-yl)pyrimidin-2-ylamino)cyclohexyl)-4-((E)-4-(dimethylamino)but-2-enamido)benzamide]
23 | < 500 | < 100 | – | CN(C)C/C=C/C(=O)Nc1ccc(C(=O)N[C@H]2CCC[C@@H](Nc3ncc(C#N)c(-c4c[nH]c5ccccc45)n3)C2)cc1 [Compound 117, N-((1S,3R)-3-(5-cyano-4-(1H-indol-3-yl)pyrimidin-2-ylamino)cyclohexyl)-4-((E)-4-(dimethylamino)but-2-enamido)benzamide]
24 | 500 to 5000 | 100 to 1000 | – | CN(C)C/C=C/C(=O)Nc1ccc(C(=O)N[C@@H]2C[C@H](F)C[C@H](Nc3ncc(Cl)c(-c4c[nH]c5ccccc45)n3)C2)cc1 [Compound 120, N-((1S,3R,5R)-3-(5-chloro-4-(1H-indol-3-yl)pyrimidin-2-ylamino)-5-fluorocyclohexyl)-4-((E)-4-(dimethylamino)but-2-enamido)benzamide]
25 | < 500 | < 100 | – | O=C(/C=C/CO)Nc1ccc(C(=O)N[C@H]2CCC[C@@H](Nc3ncc(Cl)c(-c4c[nH]c5ccccc45)n3)C2)cc1 [Compound 124, N-((1S,3R)-3-(5-chloro-4-(1H-indol-3-yl)pyrimidin-2-ylamino)cyclohexyl)-4-((E)-4-hydroxybut-2-enamido)benzamide]
26 | – | > 1000 | – | CN(C)C/C=C/C(=O)Nc1ccc(C(=O)N[C@H]2CCC[C@@H](Nc3nccc(-c4c[nH]c5ccccc45)n3)C2)cc1 [Compound 132, N-((1S,3R)-3-(4-(1H-indol-3-yl)pyrimidin-2-ylamino)cyclohexyl)-4-((E)-4-(dimethylamino)but-2-enamido)benzamide]
27 | – | < 100 | – | CN(C)C/C=C/C(=O)Nc1ccc(C(=O)N[C@H]2CCC[C@@H](Nc3ncc(Cl)c(-c4cn(C)c5ccccc45)n3)C2)cc1 [Compound 150]
28 | – | < 100 | – | Cc1[nH]c2ccccc2c1-c1nc(N[C@@H]2CCC[C@H](NC(=O)c3ccc(NC(=O)/C=C/CN(C)C)cc3)C2)ncc1Cl [Compound 154, N-((1S,3R)-3-((5-chloro-4-(2-methyl-1H-indol-3-yl)pyrimidin-2-yl)amino)cyclohexyl)-4-((E)-4-(dimethylamino)but-2-enamido)benzamide]
29 | – | 100 to 1000 | – | CON(C)C/C=C/C(=O)Nc1ccc(C(=O)N[C@H]2CCC[C@@H](Nc3ncc(Cl)c(-c4c[nH]c5ccccc45)n3)C2)cc1 [Compound 160]
